Earlier results as cited in patent US8283517B2, “Transgenic mouse models of Aβ overexpression” (Probiodrug AG, priority 2007, dated 2012).

Columns and labels:
QC = QC catalyzed conversion of Glu-βNA, pH-dependence data
[1] = not given; remark: listed apart in the source

| SMILES | pKa-value of the α-amino group, determined by titration | kinetically determined pKa-value (QC) | pKa-value for the α-amino moiety [1] | pKa-value for the γ-carboxylic moiety ([1]; printed as 7-carboxylic) |
| --- | --- | --- | --- | --- |
| N[C@@H](CCC(=O)O)C(=O)Nc1ccc2ccccc2c1 [Glu-βNA] | 7.57±0.05 | 7.55+/−0.02 | – | – |
| N[C@@H](CCC(=O)O)C(=O)O [Glutamate] | – | – | ~7.5 | about 4.2 |
